# Patent US12180187B2, “1-phenyl-5-azinylpyrazolyl-3-oxyalkyl acids and their use for controlling unwanted plant growth” (BAYER AKTIENGESELLSCHAFT, priority 2019, dated 2024)
# Tests used:
# PHBPU = assay: Pre-emergence action at 320 g/ha against PHBPU; type: in vivo; details: visual scoring after about 3 weeks vs untreated controls
# In short: (§1)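 Weed seeds sown in pots and covered with soil; compounds formulated as WP or EC were sprayed onto the soil surface as aqueous suspension or emulsion with 0.5% additive at 600 l/ha water. Pots kept in greenhouse; activity scored visually after about 3 weeks versus untreated controls (100% = plants dead, 0% = like control).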
# ECHGC = assay: Pre-emergence action at 320 g/ha against ECHGC; type: in vivo, Echinochloa crus-galli; details: visual scoring after about 3 weeks vs untreated controls
# In short: as §1
# VIOTR [1] = assay: Post-emergence action at 320 g/ha against VIOTR; type: in vivo, Viola tricolor; details: visual rating about 3 weeks after treatment vs untreated controls
# In short: (§2)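 Sow in sandy loam → greenhouse growth 2–3 wk → spray at one-leaf stage (WP/EC, aqueous, +0.5% additive, 600 l/ha) → hold ~3 wk under optimum conditions → visual rating, 0–100% relative to untreated.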
# AMARE = assay: Post-emergence action against AMARE, 1.28 kg/ha; type: in vivo, Amaranthus retroflexus; details: dosage 1280 g/ha, visual rating about 3 weeks after treatment vs untreated controls (100% = plants died)
# In short: (§3)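 Visual rating against untreated plants about 3 weeks after spraying gives % activity, where 0% means like controls and 100% means plants died. Plants were treated post-emergence at the one-leaf stage with compound formulated as wettable powder or emulsion concentrate, applied at 600 L water/ha plus 0.5% additive.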
# SETVI = assay: Post-emergence action at 320 g/ha against SETVI; type: in vivo, Setaria viridis; details: visual rating about 3 weeks after treatment vs untreated controls
# In short: as §2
# ECHCG [2] = assay: Post-emergence action at 320 g/ha against ECHCG; type: in vivo, Echinochloa crus-galli; details: dosage 320 g/ha, visual rating about 3 weeks after treatment vs untreated controls (100% = plants died)
# In short: as §2
# ABUTH [3] = assay: Post-emergence action at 320 g/ha against ABUTH; type: in vivo, Abutilon theophrasti; details: visual rating about 3 weeks after treatment vs untreated controls
# In short: as §2
# ABUTH [4] = assay: Post-emergence action against ABUTH, 1.28 kg/ha; type: in vivo, Abutilon theophrasti; details: dosage 1280 g/ha, visual rating about 3 weeks after treatment vs untreated controls (100% = plants died)
# In short: as §3
# ECHCG [5] = assay: Post-emergence action against ECHCG, 1.28 kg/ha; type: in vivo, Echinochloa crus-galli; details: dosage 1280 g/ha, visual rating about 3 weeks after treatment vs untreated controls
# In short: as §3
# VIOTR [6] = assay: Pre-emergence action at 320 g/ha against VIOTR; type: in vivo, Viola tricolor; details: dosage 320 g/ha
# In short: as §1
# ALOMY = assay: Pre-emergence action against ALOMY, 1280 g/ha; type: in vivo, Alopecurus myosuroides; details: visual scoring after about 3 weeks vs untreated controls, 100% = plants have died, 0% = like control plants
# In short: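 Visual % scoring, roughly 3 weeks post-application, against untreated controls; 100% means plants died. Treatment went onto the soil covering sown seeds (sandy loam), as aqueous suspension or emulsion plus 0.5% additive.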
# AVEFA = assay: Post-emergence action at 320 g/ha against AVEFA; type: in vivo; details: visual rating about 3 weeks after treatment vs untreated controls
# In short: as §2
# DIGSA = assay: Post-emergence action at 320 g/ha against DIGSA; type: in vivo, Digitaria sanguinalis; details: dosage 320 g/ha, visual rating about 3 weeks after treatment vs untreated controls (100% = plants died)
# In short: as §2
# LOLRI = assay: Post-emergence action against LOLRI, 1.28 kg/ha; type: in vivo, Lolium rigidum; details: dosage 1280 g/ha, visual rating about 3 weeks after treatment vs untreated controls
# In short: as §3
# KCHSC = assay: Post-emergence action against KCHSC, 1.28 kg/ha; type: in vivo, Bassia scoparia; details: dosage 1280 g/ha, visual rating about 3 weeks after treatment vs untreated controls (100% = plants died)
# In short: as §3
structure (smiles),measurement,setting,value
COC(=O)CNC(=O)COc1nn(-c2ccccc2F)c(-c2ccc(F)nc2)c1Br [Example X-002],Pre-emergence action against PHBPU in %,PHBPU,80%
same,Pre-emergence action against ECHGC in %,ECHGC,100%
same,Post-emergence action against VIOTR in %,VIOTR [1],90%
same,Post-emergence action against AMARE,AMARE,90%
same,Post-emergence action against SETVI in %,SETVI,90%
same,Post-emergence action at 320 g/ha against ECHCG in %,ECHCG [2],100%
same,Post-emergence action against ABUTH in %,ABUTH [3],90%
same,Post-emergence action against ABUTH,ABUTH [4],90%
same,Post-emergence action against ECHCG,ECHCG [5],90%
same,Pre-emergence action against VIOTR in %,VIOTR [6],100%
same,Pre-emergence action against ALOMY,ALOMY,100%
same,Post-emergence action against AVEFA in %,AVEFA,100%
same,Post-emergence action at 320 g/ha against DIGSA in %,DIGSA,100%
"COC(=O)[C@@H](C)Oc1nn(-c2ccccc2F)c(-c2cncnc2)c1Br [VI-011, Methyl (2R)-2-{[4-bromo-1-(2-fluorophenyl)-5-(pyrimidin-5-yl)-1H-pyrazol-3-yl]oxy}propanoate]",Pre-emergence action against PHBPU in %,PHBPU,90%
same,Pre-emergence action against ECHGC in %,ECHGC,80%
same,pest or weed control at 320 g/ha,"VIOTR [1]; Viola tricolor, 504 h",90%
same,Post-emergence action against SETVI in %,SETVI,90%
same,Post-emergence action against ABUTH in %,ABUTH [3],90%
same,pest or weed control at 1280 g/ha,"ECHCG [5]; Echinochloa crus-galli, 504 h",100%
same,pest or weed control at 320 g/ha,"VIOTR [6]; Viola tricolor, 504 h",100%
same,Pre-emergence action against ALOMY,ALOMY,90%
same,pest or weed control at 320 g/ha,"AVEFA; Avena fatua, 504 h",90%
same,pest or weed control at 320 g/ha,"DIGSA; Digitaria sanguinalis, 504 h",90%
same,Post-emergence action against LOLRI,LOLRI,100%
same,Post-emergence action against KCHSC,KCHSC,90%
C[C@@H](Oc1nn(-c2ccccc2F)c(-c2cncnc2)c1Br)C(=O)O [VI-012],Pre-emergence action against PHBPU in %,PHBPU,90%
same,Pre-emergence action against ECHGC in %,ECHGC,80%
same,Post-emergence action against VIOTR in %,VIOTR [1],100%
same,Post-emergence action against AMARE,AMARE,90%
same,Post-emergence action against SETVI in %,SETVI,90%
same,Post-emergence action against ABUTH in %,ABUTH [3],80%
same,Post-emergence action against ECHCG,ECHCG [5],100%
same,Pre-emergence action against VIOTR in %,VIOTR [6],100%
same,Pre-emergence action against ALOMY,ALOMY,90%
same,Post-emergence action against AVEFA in %,AVEFA,90%
same,Post-emergence action against LOLRI,LOLRI,90%
same,Post-emergence action against KCHSC,KCHSC,90%
CCOC(=O)COc1nn(-c2ccccc2F)c(-c2ccc(F)nc2)c1C(F)(F)F [VII-010],Pre-emergence action against PHBPU in %,PHBPU,90%
same,Pre-emergence action against ECHGC in %,ECHGC,100%
same,Post-emergence action against VIOTR in %,VIOTR [1],80%
same,Post-emergence action against SETVI in %,SETVI,90%
same,Post-emergence action at 320 g/ha against ECHCG in %,ECHCG [2],90%
same,Post-emergence action against ABUTH in %,ABUTH [3],80%
same,Post-emergence action against ABUTH,ABUTH [4],90%
same,Post-emergence action against ECHCG,ECHCG [5],100%
same,Pre-emergence action against VIOTR in %,VIOTR [6],100%
same,Pre-emergence action against ALOMY,ALOMY,100%
same,Post-emergence action against AVEFA in %,AVEFA,100%
same,Post-emergence action at 320 g/ha against DIGSA in %,DIGSA,90%
CCOC(=O)COc1nn(-c2ccccc2F)c(-c2cncc(F)c2)c1Br [VII-015],Pre-emergence action against PHBPU in %,PHBPU,90%
same,Pre-emergence action against ECHGC in %,ECHGC,90%
same,Post-emergence action against VIOTR in %,VIOTR [1],90%
same,Post-emergence action against AMARE,AMARE,90%
same,Post-emergence action against SETVI in %,SETVI,100%
same,Post-emergence action at 320 g/ha against ECHCG in %,ECHCG [2],90%
same,Post-emergence action against ABUTH in %,ABUTH [3],90%
same,Post-emergence action against ABUTH,ABUTH [4],90%
same,Post-emergence action against ECHCG,ECHCG [5],100%
same,Pre-emergence action against VIOTR in %,VIOTR [6],100%
same,Pre-emergence action against ALOMY,ALOMY,90%
same,Post-emergence action against AVEFA in %,AVEFA,90%
same,Post-emergence action at 320 g/ha against DIGSA in %,DIGSA,100%
same,Post-emergence action against LOLRI,LOLRI,100%
O=C(O)COc1nn(-c2ccccc2F)c(-c2cncc(F)c2)c1Br [VII-025],Pre-emergence action against PHBPU in %,PHBPU,90%
same,Pre-emergence action against ECHGC in %,ECHGC,100%
same,Post-emergence action against VIOTR in %,VIOTR [1],90%
same,Post-emergence action against AMARE,AMARE,90%
same,Post-emergence action against SETVI in %,SETVI,100%
same,Post-emergence action at 320 g/ha against ECHCG in %,ECHCG [2],90%
same,Post-emergence action against ABUTH in %,ABUTH [3],90%
same,Post-emergence action against ABUTH,ABUTH [4],90%
same,Post-emergence action against ECHCG,ECHCG [5],100%
same,Pre-emergence action against VIOTR in %,VIOTR [6],100%
same,Pre-emergence action against ALOMY,ALOMY,100%
same,Post-emergence action against AVEFA in %,AVEFA,90%
same,Post-emergence action at 320 g/ha against DIGSA in %,DIGSA,100%
COC(=O)COc1nn(-c2ccccc2F)c(-c2ccc(F)nc2)c1C(F)(F)F [VII-031],Pre-emergence action against PHBPU in %,PHBPU,80%
same,Pre-emergence action against ECHGC in %,ECHGC,90%
same,Post-emergence action against VIOTR in %,VIOTR [1],90%
same,Post-emergence action against AMARE,AMARE,90%
same,Post-emergence action against SETVI in %,SETVI,90%
same,Post-emergence action at 320 g/ha against ECHCG in %,ECHCG [2],90%
same,Post-emergence action against ABUTH in %,ABUTH [3],90%
same,Post-emergence action against ABUTH,ABUTH [4],90%
same,Post-emergence action against ECHCG,ECHCG [5],100%
same,Pre-emergence action against VIOTR in %,VIOTR [6],100%
same,Pre-emergence action against ALOMY,ALOMY,100%
same,Post-emergence action against AVEFA in %,AVEFA,90%
same,Post-emergence action at 320 g/ha against DIGSA in %,DIGSA,100%
same,Post-emergence action against LOLRI,LOLRI,100%
COC(=O)COc1nn(-c2ccccc2F)c(-c2cncc(F)c2)c1Br [VII-035],Pre-emergence action against PHBPU in %,PHBPU,90%
same,Pre-emergence action against ECHGC in %,ECHGC,90%
same,Post-emergence action against VIOTR in %,VIOTR [1],90%
same,Post-emergence action against AMARE,AMARE,90%
same,Post-emergence action against SETVI in %,SETVI,90%
same,Post-emergence action at 320 g/ha against ECHCG in %,ECHCG [2],90%
same,Post-emergence action against ABUTH in %,ABUTH [3],90%
same,Post-emergence action against ABUTH,ABUTH [4],90%
same,Post-emergence action against ECHCG,ECHCG [5],100%
same,Pre-emergence action against VIOTR in %,VIOTR [6],100%
same,Pre-emergence action against ALOMY,ALOMY,100%
same,Post-emergence action against AVEFA in %,AVEFA,90%
same,Post-emergence action at 320 g/ha against DIGSA in %,DIGSA,100%
same,Post-emergence action against LOLRI,LOLRI,100%
COC(=O)CCOC(=O)COc1nn(-c2ccccc2F)c(-c2ccc(F)nc2)c1Br [VII-111],Pre-emergence action against ECHGC in %,ECHGC,100%
same,Post-emergence action against VIOTR in %,VIOTR [1],90%
same,Post-emergence action against AMARE,AMARE,90%
same,Post-emergence action against SETVI in %,SETVI,90%
same,Post-emergence action at 320 g/ha against ECHCG in %,ECHCG [2],90%
same,Post-emergence action against ABUTH in %,ABUTH [3],80%
same,Post-emergence action against ABUTH,ABUTH [4],90%
same,Post-emergence action against ECHCG,ECHCG [5],100%
same,Pre-emergence action against VIOTR in %,VIOTR [6],100%
same,Pre-emergence action against ALOMY,ALOMY,100%
same,Post-emergence action against AVEFA in %,AVEFA,90%
same,Post-emergence action at 320 g/ha against DIGSA in %,DIGSA,90%
same,Post-emergence action against LOLRI,LOLRI,90%
